Laboratory results from patent US20180015075A1, “METHODS AND COMPOSITIONS FOR TREATMENT OF VENOUS MALFORMATION” (Children's Hospital Medical Center, priority 2016, published 2018).
Like-named read-outs stand apart in the source and are kept apart here.

Key:
[1] = test system: Pik3ca^H1047R VM lesions; details: mouse, in vivo; cited from earlier work
[2] = test system: HUVEC-TIE2-L914F-GFP vascular channels; test: Fibrin gel bead assay; format: cell-based, human
Method: Assay was performed as described(34). Briefly, coated the beads with HUVEC-GFP or HUVEC-TIE2-L914F-GFP cells (2500 beads with 1×10^6 cells) and mixed coated beads in fibrinogen solution at a concentration of ˜500 beads/ml. Then 0.625 Units/mL of thrombin and 0.5 ml beads/fibrinogen suspension were added per well in 24-well plate successively. After dotting in the 37° C.-incubator, added 1 ml EGM-2 medium and 20,000 fibroblasts per well on the top. Then beads treated by adding DMSO, Ponatinib, rapamycin or combination in the medium

SMILES | VM lesion growth [1] | cell apoptosis (cleaved caspase-3 positive cells) [1] | tube formation (tube area at day 11) [2] | vascular/tube area expansion from day 8 to 14 [2] [%] | vascular/tube area expansion from day 8 to 14 ([2]; 100 nM Ponatinib or 10 nM rapamycin added from day 8, vehicle 54.50±3.81%) [%]
Cc1nc(NC(=O)N2CCC[C@H]2C(N)=O)sc1-c1ccnc(C(C)(C)C(F)(F)F)c1 [BYL719] | strongly inhibited VM lesion growth | increased the number of cleaved caspase-3 positive cells |  |  | 
CO[C@H]1C[C@@H]2CC[C@@H](C)[C@@](O)(O2)C(=O)C(=O)N2CCCC[C@H]2C(=O)O[C@H]([C@H](C)C[C@@H]2CC[C@@H](OCCO)[C@H](OC)C2)CC(=O)[C@H](C)/C=C(\C)[C@@H](O)[C@@H](OC)C(=O)[C@H](C)C[C@H](C)/C=C/C=C/C=C/1C [Everolimus, 42-O-(2-Hydroxyethyl)-rapamycin] | prevented lesion growth | did not induce cell apoptosis |  |  | 
Cc1ccc(C(=O)Nc2ccc(CN3CCN(C)CC3)c(C(F)(F)F)c2)cc1C#Cc1cnc2cccnn12 [Ponatinib, 3-(2-imidazo[1,2-b]pyridazin-3-ylethynyl)-4-methyl-N-[4-[(4-methyl-1-piperazinyl)methyl]-3-(trifluoromethyl)phenyl]-benzamide] |  |  | almost completely inhibited tube formation | 14.79±4.53 | 
CO[C@H]1C[C@@H]2CC[C@@H](C)[C@@](O)(O2)C(=O)C(=O)N2CCCC[C@H]2C(=O)O[C@H]([C@H](C)C[C@@H]2CC[C@@H](O)[C@H](OC)C2)CC(=O)[C@H](C)/C=C(\C)[C@@H](O)[C@@H](OC)C(=O)[C@H](C)C[C@H](C)/C=C/C=C/C=C/1C [Sirolimus, Rapamycin] |  |  |  |  | 20.25±3.23
